The source of these data is patent publication US20230302084A1, “METHODS AND COMPOSITIONS FOR TREATING PERIODONTAL DISEASE” (priority 2020, published 2023).

Data set [1] concerns TIGK cells. The data set is described as follows: ATP assay (BAR NPs). The data set is classed as cell-based. Conditions: 1 ng staurosporine, vs untreated and NP-treated cells. On the procedure:
Total ATP levels in cell culture were assessed by using the CellTiter-Glo reagent (Promega, Madison WI), as described by the manufacturer. TIGK cells were seeded at a density of 6×10^4 cells in 1 mL media per well and incubated at 37° C., 5% CO2 for 24 hr in a 12-well flat bottom plate. Cells were then incubated with CafA-modified BAR-NPs or unmodified BAR-NPs (1.3 or 3.4 μM) for 24 hr at 37° C. in 5% CO2. Cells were then lysed with 500 μL of 0.1% Triton X-100 for 30 min at 37° C. The lysates were collected and centrifuged at 1,000×g for 10 min at 4° C., and 50 μL of supernatant was mixed with 50 μL of CellTiter-Glo reagent. Samples were incubated at ambient temperature for 10 min in a black 96-well plate in the dark. Total luminescence was measured with a Victor 3 luminometer (Perkin-Elmer, Inc). Cells incubated with 1 ng of staurosporine or with medium-only served as positive and negative controls for cell death, respectively.

For data set [2], the system named is TIGK cells. Nature of the data set: ATP assay (BAR, BAR-EFs). The data set is classed as cell-based. The protocol: (§1) Telomerase immortalized gingival keratinocytes (TIGKs) were grown on 12-well collagen-coated plates (Becton Dickinson, Bedford, MA) and cultured using DermaLife K Calcium Free Medium (LifeFactors®) supplemented with penicillin/streptomycin (100 U/mL final concentration; St. Louis, MO), insulin (5 μg/mL), recombinant human (rh), L-glutamine (6 mM), apo-transferrin (5 μg/mL), epinephrine (1 μM), rh TGF-α (0.5 ng/mL), extract P™, calcium chloride (0.06 mM) and hydrocortisone hemisuccinate (100 ng/mL). The cells were incubated at 37° C. in the presence of 5% CO2 for 6 days until they reached 95% confluence.
ATP Assay: The metabolic activity of TIGK cells was assessed by measuring total ATP levels using the CellTiter-Glo reagent (Promega, Madison WI), as described by the manufacturer. TIGK cells were seeded at a density of 6×10^4 cells in 1 mL media per well and incubated at 37° C., 5% CO2 for 24 hr in a 12-well flat bottom plate. Cells were then incubated with BAR or 10:90 PLGA-PEO BAR-EFs (1.3 or 3.4 μM) for 24 hr at 37° C. in 5% CO2. Cells were then lysed with 500 μL of 0.1% Triton X-100 for 30 min at 37° C. The lysates were collected and centrifuged at 1,000×g for 10 min at 4° C., and 50 μL of supernatant was mixed with 50 μL of CellTiter-Glo reagent. […] Total luminescence was measured with a Victor 3 luminometer (Perkin-Elmer, Inc). […]

Data set [3] concerns TIGK cells. The data set is described as follows: LDH assay (BAR NPs). Conditions: staurosporine, vs control or treated cells. The data set is classed as cell-based. On the procedure:
Cell membrane leakage was measured by the release of lactate dehydrogenase (LDH). Extracellular LDH was quantified using a CytoTox96® non-radioactive cytotoxicity assay (Promega, Madison WI) as described by the manufacturer. TIGK cells were plated at density of 6×10^4 cells in 1 mL media per well in a 12-well flat bottom plate, and incubated at 37° C., 5% CO2 for 24 hr. CafA-modified BAR NPs or unmodified BAR NPs (1.3 or 3.4 μM) were added to cells in triplicate for 24 hr at 37° C. in 5% CO2. Fifty microliters of supernatant from CafA-modified BAR NP- and unmodified BAR NP-treated (1.3 and 3.4 μM) cells were added to the LDH substrate and incubated at room temperature for 30 min. The reactions were subsequently terminated by adding 50 μL of stop solution. LDH activity was determined by measuring the optical density of the solution at 490 nm. Cells treated with staurosporine or with medium-only served as positive and negative controls for cell death, respectively.

For data set [4], the system named is TIGK cells. Nature of the data set: LDH assay (BAR, BAR-EFs). The data set is classed as cell-based. The protocol:
as §1
LDH Assay: Cell membrane leakage was measured by assessing the release of lactate dehydrogenase (LDH). Extracellular LDH was quantified using a CytoTox96® non-radioactive cytotoxicity assay (Promega, Madison WI) as described by the manufacturer. TIGK cells were plated at density of 6×10^4 cells in 1 mL media per well in a 12-well flat bottom plate, and incubated at 37° C., 5% CO2 for 24 hr. BAR or 10:90 PLGA-PEO BAR-EFs (1.3 or 3.4 μM) were added to cells in triplicate for 24 hr at 37° C. in 5% CO2. Fifty microliters of supernatant from free BAR and BAR-EF-treated (1.3 and 3.4 μM) cells were added to the LDH substrate and incubated at room temperature for 30 min. […] LDH activity was determined by measuring the optical density of the solution at 490 nm. […]

Data set [5] has as its system P. gingivalis adherence to S. gordonii. Conditions: 3.0 μM.
Protocol: P. gingivalis (ATCC 33277) was grown in Trypticase soy broth (Difco Laboratories Inc., Livonia, MI, USA) supplemented with 0.5% (w/v) yeast extract, 1 μg/mL menadione, and 5 μg/mL hemin. The medium was reduced for 24 hr under anaerobic conditions (10% CO2, 10% H2, and 80% N2) and P. gingivalis was subsequently inoculated and grown anaerobically for 48 hr at 37° C. S. gordonii DL-1 was cultured aerobically without shaking in brain-heart infusion broth (Difco Laboratories Inc.) supplemented with 1% yeast extract for 16 hr at 37° C.
To assess the effectiveness of BAR-incorporated EFs to prevent the interaction of P. gingivalis with S. gordonii, S. gordonii was harvested from culture and labeled with 20 μL of 5 mg/mL hexidium iodide for 15 min at room temperature. Following incubation, cells were centrifuged to remove unbound fluorescent dye. The bacterial concentration was subsequently measured by the OD (600 nm) from twenty-fold diluted cultures of S. gordonii. […]
Plates containing P. gingivalis and S. gordonii were subsequently incubated for 24 hr at 37° C. in anaerobic conditions. […] Images were analyzed with Volocity image analysis software (version 6.3; Perkin Elmer, Waltham, MA, USA) to determine the ratio of green to red fluorescence (GR), representing P. gingivalis and S. gordonii, respectively. Control samples were used to subtract background levels of auto-fluorescence. […]
Data set [6] shares this test system. The note with it: cited from earlier work.
Data set [7] deals with TIGK cells. Nature of the data set: MTT assay (BAR, BAR-EFs). Conditions: 1.3 or 3.4 μM, 24 hr, relative to medium-only treated cells. The data set is classed as cell-based. On the procedure:
as §1
MTT Assay: TIGK cells were seeded in 12-well plates at a density of 6×10^4 cells in 1 mL media per well and incubated for 24 hr to allow for 60-70% confluency and sufficient adhesion. Cells were treated with 1.3 or 3.4 μM of BAR or 10:90 PLGA-PEO BAR-EFs. After 24 hr, 100 μL of MTT solution was added to the media of all samples. After 4 hr incubation at 37° C., 550 μL of lysis buffer was added to the media of each well and plates were incubated for overnight. The absorbance of each well was read at 570 nm, and the sample absorbance was normalized to the absorbance of medium-only treated cells. Cells were treated with 10% DMSO media (100 μL DMSO in 900 μL media) as a positive control for cell death.

For another data set, the system named is sheep erythrocytes. The note with it: 1.3, 3.4 μM, 3 hr, relative to H2O-treated cells.
For data set [8], the system named is TIGK cells. The data set is described as follows: Oxidative DNA damage (AP sites). The data set is classed as cell-based. Conditions: 1.3 or 3.4 μM, 24 hr. On the procedure:
as §1
Oxidative DNA Damage: Free radicals and other reactive species are generated from cells under stress and cause oxidative damage to biomolecules. DNA is the most targeted site of oxidative attack. […] OxiSelect™ Oxidative DNA Damage Quantitation Kit (Cell Biolabs, INC., San Diego, CA, USA) was used to quantify AP sites in cells treated with free BAR or 10:90 PLGA-PEO BAR-EFs (1.3 or 3.4 μM) as described by the manufacturer. […] AP sites were determined in genomic DNA by using a biotinylated aldehyde reactive probe (ARP) that reacts specifically with an aldehyde group of AP sites, followed by colorimetric detection using a streptavidin-enzyme conjugate (450 nm). The quantity of AP sites in DNA samples was determined by comparing the absorbance with standard curve of known amount of AP sites.

Data set [9] has as its system pre-established P. gingivalis-S. gordonii biofilms. Nature of the data set: Biofilm disruption assay. The data set is classed as cell-based, P. gingivalis (ATCC 33277) / S. gordonii DL-1. The note with it: 3.0 μM, 3 hr on 24 hr biofilms. On the procedure:
The resulting P. gingivalis S. gordonii biofilms were then treated for the maximum duration observed for free BAR to disrupt existing biofilms (3 hr). Established biofilms were administered BAR-EFs, free BAR or blank EFs at various concentrations in 1 mL PBS, and processed and analyzed as described above. The mean and standard deviation (SD) between samples were determined and the percent disruption of P. gingivalis adherence was calculated with the following formula: GR sample/GR control.

For data set [10], the target named is T1, minor fimbriae (Mfal) of P. gingivalis (Porphyromonas gingivalis, UniProt B2RHG1 50-563).
T1 sequence (looked up): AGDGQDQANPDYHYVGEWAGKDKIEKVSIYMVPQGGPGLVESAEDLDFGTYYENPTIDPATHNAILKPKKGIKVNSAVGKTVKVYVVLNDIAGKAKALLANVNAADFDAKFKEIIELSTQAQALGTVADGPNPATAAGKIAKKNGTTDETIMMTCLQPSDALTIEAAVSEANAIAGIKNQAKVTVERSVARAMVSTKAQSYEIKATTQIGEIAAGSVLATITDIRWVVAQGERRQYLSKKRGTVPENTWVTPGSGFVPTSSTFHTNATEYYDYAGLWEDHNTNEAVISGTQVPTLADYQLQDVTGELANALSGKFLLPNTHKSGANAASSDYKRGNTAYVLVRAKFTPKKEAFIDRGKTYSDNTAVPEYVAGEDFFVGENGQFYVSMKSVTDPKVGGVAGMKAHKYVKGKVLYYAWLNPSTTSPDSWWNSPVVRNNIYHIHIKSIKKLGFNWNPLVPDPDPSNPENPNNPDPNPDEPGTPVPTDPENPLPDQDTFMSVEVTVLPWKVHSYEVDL
Nature of the data set: cell-based or functional assay.

Protocol for sheep erythrocytes: Hemolytic Assay: A sample of 250 μL of 1% sheep erythrocytes (Rockland Inc, Pennsylvania, USA) was suspended in sterile PBS. […] Water replaced PBS as a positive control for cell hemolysis. The suspension was incubated at 37° C. for 3 hr then centrifuged at 3,500×g. Hemoglobin released due to cell lysis was analyzed by measuring the absorbance at 541 nm.

`CN[C@@H]1C[C@H]2O[C@@](C)([C@@H]1OC)n1c3ccccc3c3c4c(c5c6ccccc6n2c5c31)C(=O)NC4` [Staurosporine, staurosporine, reference compound]: the “ATP levels (positive control)” value is recorded as “significantly lower levels of ATP” in the data set on TIGK cells [1]; “significantly lower levels of ATP” in the data set on TIGK cells [2] (1 ng staurosporine, vs medium-only, free BAR and BAR-EF treated cells). For the same molecule, the “LDH activity released (positive control)” value in the data set with TIGK cells [3] is given as “significantly higher”. Also, in the data set on TIGK cells [4] (staurosporine, relative to medium-only, free BAR and BAR-EFs), the “LDH released (positive control)” value is given as “significantly higher level of LDH”.

Molecule “H-LEAAPKKVQDLLKKANITVKGAFQLFS-OH [free BAR, NH2-LEA APK KVQ DLL KKA NIT VKG AFQ LFS-COOH]” showed a Biofilm formation inhibited in data set [5] of 81%. In addition, the IC50 in data set [6] (previously determined, read-out: previously determined IC50 of free BAR) is 1300 nM. Also, the maximum effective concentration in [6] (used in in vitro and in vivo studies) is 3.4 µM. In addition, the “ATP levels relative to medium-only treated cells” value in the data set on TIGK cells [2] (1.3 or 3.4 μM, 24 hr) is reported as “no decrease in ATP”. In addition, the “TIGK cell viability (MTT)” value in the data set on TIGK cells [7] is listed as “no loss in viability”. In addition, the “LDH released relative to medium-only treated cells” value in the data set on TIGK cells [4] (1.3 or 3.4 μM, 24 hr) is “no change in levels of LDH”. Further, the Hemolytic activity entry in the data set with sheep erythrocytes is “negligible hemolysis”. Further, the “Number of AP sites relative to medium-only treated cells” value in the data set with TIGK cells [8] is reported as “no change in the number of AP sites”. The same molecule gave a Biofilm formation disrupted in [9] of 66%.

B1: BAR (SspB Adherence Region) peptide (peptide)
peptide: LEAAPKKVQDLLKKANITVKGAFQLFS
Turning to B1, in [10], the “IC50 of biofilm disruption, BAR-incorporated 10:90 PLGA:PEO EFs” value was 2000 nM and the “IC50 of inhibition of biofilm formation, BAR-incorporated 10:90 PLGA:PEO EFs” value turned out to be 1300 nM.
